Laboratory results taken from patent US7943606B2, “Compositions and methods to control abnormal cell growth” (CanCure Laboratories, LLC, priority 2005, dated 2011).
Structures can show the parent of a compound that is named as a salt.

Experiments:
NIH 3T3 cells = test: Viability of NIH 3T3 normal fibroblasts (MTT assay); assay type: cell-based; settings: 72 hours; for cytotoxicity at 100 µM: Mus musculus, NIH3T3, read-out: Decrease in cell number (maximal decrease = 100%), NIH 3T3
Experimental: (§1) To quantify cell death, around the time when significant and characteristic morphological changes took place, cells were pulse-labeled for 10 minutes with [^3H]thymidine to measure DNA activity as described elsewhere [Tomono, M. and Kiss, Z. (1995), “Ethanol enhances the stimulatory effects of insulin and insulin-like growth factor-I on DNA synthesis in NIH 3T3 fibroblasts,” Biochem. Biophys. Res. Commun. 208, 63-67]. Also, cells were collected as suspensions using trypsin, an established method in cell biology, followed by re-plating of cells in fresh tissue culture medium. If no viable cells were obtained after one week in culture, it meant that the cells at the time of re-plating were dead. Survival values obtained with untreated cells were considered 100%. For the determination of relative number of viable cells after treatments, in most cases the MTT assay was used. This calorimetric assay is based on the ability of living cells, but not dead cells, to reduce 3-(4,5-dimethyl thiazol-2-yl)-2,5-diphenyltetrazolium bromide [Carmichael, J, De Graff, W. G., Gazdar, A. F., Minna, J. D. and Mitchell, J. B. (1987), “Evaluation of tetrazolium-based semi-automated calorimetric assay: Assessment of chemosensitivity testing,” Cancer Res. 47, 936-942]. For this assay, cells were plated in 96-well plates, and the MTT assay was performed both in untreated and treated cell cultures. The MTT assay also was performed at the start of treatments to allow assessment of proliferation rates in the control and treated cell cultures.
(§2) The NIH 3T3 (normal) mouse fibroblast, A431 human epidermoid adenocarcinoma, and MCF-7 human breast cancer cells were cultured in DMEM medium containing 10% FBS. The MEL-28 human melanoma cells were cultured in MEM medium containing 10% FBS. The HT-29 human colon adenocarcinoma cells were cultured in McCoy's 5a medium containing 10% FBS. The A549 human lung carcinoma cells were maintained in Ham's F12K medium containing 10% FBS. Cells were seeded into 96-well plates and treated at ˜70-90% confluency. Two hours before treatments the medium was changed for fresh 10% serum medium, and then the cells were incubated for 72 hours in the presence of 0-200 μM of CCompound1 (●) or CCompound3 (CCDTHT) (▴), as indicated. The MTT assay was used to determine cell viability after treatments. The values, shown in FIGS. 5A-5F and expressed as percent decrease in viability compared to the untreated control cells, are the mean±std. dev. of 8 incubations in one experiment. Similar results were obtained in another experiment.
(§3) NIH3T3, T47D, A-431, HT-29, and MEL-28 cells were cultured as indicated earlier. CaOV-3 human ovarian cancer cells were cultured in DMEM containing 10% FBS. ZR-75-1 human estrogen receptor-positive breast cancer cells were maintained in RPMI 1640 medium supplemented with 10% FBS. HTB-157 human fetal fibroblasts, MEL-24 human malignant melanoma cells, Hep G2 human hepatoblastoma cells, and CaCO-2 human colon adenocarcinoma cells were maintained in Eagles's MEM containing 10% FBS. MB-231 human estrogen receptor-negative breast cancer cells were maintained in Leibovitz's L-15 medium supplemented with 10% FBS. Cells were seeded into 96-well plates and treated at ˜70-90% confluency. Two hours prior to treatments the medium was changed for fresh 10% serum medium, and then the cells were incubated for 10 days in the absence (□) or presence of 50 μM CCDTHT ? or 100 μM CCDTHT (▪). The medium was changed and the cells were re-treated on days 3 and 6. The MTT assay was used to determine cell viability on day 10. The data, shown in FIG. 6, are the mean±std. dev. of 8 incubations in one experiment. (The experiment was repeated twice with similar results).
NIH 3T3, MEL-28, MEL-24, CaOV-3, ZR-75-1, and T47D cells were cultured as described above. The OVCAR human ovarian cancer cells were cultured in DMEM containing 10% FBS. Cells were seeded into 96-well plates and used at ˜60-80% confluency. […]

MEL-28 cells = test: Viability of MEL-28 melanoma cells; assay type: cell-based, human; settings: for inhibition at 100 µM: Homo sapiens, SK-MEL-28, read-out: Decrease in cell number (maximal decrease = 100%), MEL-28
Experimental: as §1
About 60% confluent cultures of MEL-28 cells, cultured in 12-well plates in MEM medium supplemented with 10% FBS, were either untreated (FIG. 2A), or were treated with 100 μM CCDTHT (CCompound3) for 72 hours (FIG. 2B).
as §2, with “experiment.” for “experiment. Similar results were obtained in another experiment.”
as §3, with “experiment.” for “experiment. (The experiment was repeated twice with similar results).”

Row | SMILES | cytotoxicity at 100 µM (NIH 3T3 cells) | inhibition at 100 µM (MEL-28 cells; 100 μM, 72 hours) | other results
1 | CC[N+](C)(C)CCCOCc1ccc2sc3ccccc3c(=O)c2c1 [CCcompound11, N,N-Dimethyl-N-ethyl-3-[(9-oxo-9H-thioxanthen-2-yl)methoxy]-propane-1-aminium iodide] | 21% | 94% | 
2 | CC[N+](CC)(CCCO)Cc1ccc2sc3ccccc3c(=O)c2c1 [CCcompound16, 3-Hydroxy-N,N-diethyl-N-[(9-oxo-9H-thioxanthen-2-yl)methyl]-propane-1-aminium bromide] | 19% | 10% | 
3 | C[N+](C)(CCCO)Cc1ccc2sc3ccccc3c(=O)c2c1 [CCcompound15, 3-Hydroxy-N,N-dimethyl-N-[(9-oxo-9H-thioxanthen-2-yl)methyl]propane-1-aminium bromide] | 11% | 19% | 
4 | CC[N+](CC)(CC)CCCOCc1ccc2sc3ccccc3c(=O)c2c1 [CCcompound9, N,N,N-Triethyl-3-[(9-oxo-9H-thioxanthen-2-yl)methoxy]-propane-1-aminium iodide] | 22% | 14% | 
5 | CC[N+](C)(CC)CCOCc1ccc2sc3ccccc3c(=O)c2c1.[I-] [CCDTHT, N,N-diethyl-N-methyl-2-[(9-oxo-9H-thioxanthen-2-yl)methoxy]-ethanaminium iodide] | 29% | 60% | sensitivity compared with HaCaT cells, NIH 3T3 fibroblasts (NIH 3T3 cells; 50 and 100 μM, MTT): significantly less sensitive; reduction of cell numbers, MEL-28, CCDTHT versus CCompound1 (MEL-28 cells; 0-200 μM, 72 hours, MTT): clearly more effective than CCompound1; reversibility: proliferation in fresh medium after treatment, MEL-28 (MEL-28 cells; 50 μM 48 hours, then 96 hours without CCDTHT): not sufficient to suppress proliferation; DNA synthesis (radiolabeled thymidine), MEL-28 (MEL-28 cells; 100 μM, 72 hours): did not synthesize detectable amount of DNA; morphology / cell death, MEL-28 (MEL-28 cells; 100 μM, 72 hours, 12-well plates): practically all cells rounded up; decrease in the number of viable cells versus 0.5 mM HC-3, MEL-28 (MEL-28 cells; 100 μM, 72 hours, MTT): much greater decreases in the number of viable cells compared to 0.5 mM HC-3; sensitivity to the inhibitory actions, MEL-28 (MEL-28 cells; 50 and 100 μM, 10 days, MTT): very sensitive
6 | CC[N+](CC)(CCO)Cc1ccc2sc3ccccc3c(=O)c2c1 [CCcompound14, 2-Hydroxy-N,N-Diethyl-N-[(9-oxo-9H-thioxanthen-2-yl)methyl]-ethanaminium bromide] | 30% | 90% | 
7 | C[N+](C)(CCO)Cc1ccc2sc3ccccc3c(=O)c2c1 [CCcompound13, 2-Hydroxy-N,N-dimethyl-N-[(9-oxo-9H-thioxanthen-2-yl)methyl]-ethanaminium bromide] | 25% | 11% | 
8 | CC[NH+](CC)CCCOCc1ccc2sc3ccccc3c(=O)c2c1 [CCcompound12, 2-{[3-(Diethylamino)propoxy]meth-yl}-9H-thioxanthen-9-one hydrochloride] | 0% | 71% | 
9 | CC[N+](C)(CC)CCCOCc1ccc2sc3ccccc3c(=O)c2c1 [CCcompound10, N,N-Diethyl-N-methyl-3-[(9-oxo-9H-thioxanthen-2-yl)methoxy]-propane-1-aminium iodide] | 21% | 11% | 
